Literature values, collected in US20110015663A1, “Combination Therapies for the Treatment of Obesity” (priority 2009, published 2011).

Conditions: literature studies

Compound	weight loss for drug compared with placebo
CCN[C@@H](C)Cc1cccc(C(F)(F)F)c1 [dexfenfluramine]	about 5 % of body weight
CCCCCCCCCCC[C@@H](C[C@@H]1OC(=O)[C@H]1CCCCCC)OC(=O)[C@H](CC(C)C)NC=O [orlistat]	about 5 % of body weight
CC(C)(N)Cc1ccccc1 [phentermine]	about 5 % of body weight
CC(C)CC(N(C)C)C1(c2ccc(Cl)cc2)CCC1 (stereo not drawn) [sibutramine]	about 5 % of body weight

Conditions: not given

Compound	solubility in water
G-2-beta-cyclodextrin	147 % (w/v)
triacetyl-beta-cyclodextrin	insoluble
